The values below come from patent US5122448A, “Assay of anti-Epstein-Barr virus nuclear antigen antibodies with synthetic polypeptides” (Scripps Clinic and Research Foundation, priority 1990, dated 1992).

Data set [1] is described as follows: Circular dichroism spectroscopy. The following applies: 1 mg/ml in phosphate buffered saline. The class given is physicochemical. The procedure: The conformational properties of the polypeptides were investigated to elucidate any secondary structure that might be necessary for polypeptide immunoreaction with human anti-EBNA antibodies. The polypeptides were dissolved at a concentration of 1 mg/ml in phosphate-buffered saline (PBS). Spectra were taken using 1 ml samples in a Cary 61 spectropolarimeter (Cary Instruments, Applied Physics Corp., Monrovia, Calif.) interfaced and automated with a Digital Equipment Corporation 11/02 computer (Digital Equipment Corporation, Maynard, Mass.).
In general terms: Circular dichroism is widely used to follow secondary structure.

The test system of a further data set is anti-EBNA antibodies. In words: ELISA with polypeptide as solid phase antigen, anti-polypeptide activity of sera (OD405). The following applies: for Number of anti-EBNA positive sera positive against (bound to) polypeptide: 91 ACIF anti-EBNA positive sera, 1:20 dilution; for Titer of PSS patients versus normals: Progressive Systemic Schlerosis patients; for Reaction of VCA+ sera with polypeptide: clinically normal VCA+ individuals, two dilutions; for Reaction of VCA- sera with polypeptide: panel of 19 VCA- sera; for OD405 × 10^3 obtained with Patient Antibodies to peptide: serum 1:20. The class given is binding, human. (An ELISA detects its analyte on a solid surface through an enzyme-linked reagent.)

Data set [2] has as its system rabbit anti-polypeptide antibody to polypeptide P62. The experiment in a line: Competition ELISA with rabbit anti-polypeptide P62 antibody on solid phase P62. Type of data set: binding. The following applies: antibody first incubated with competing polypeptide. As for the experimental part: Anti-peptide antibody binding and inhibition studies were carried out by an enzyme-linked immunosorbent assay (ELISA) as described below.
Contact between the wells and antigen-containing solution was maintained for a predetermined time, typically 15 minutes, and at 20 degrees C., to form an antigen-coated solid phase. The solid and liquid phases were separated and the wells were washed three times with BBS.
Rabbit and human sera (body sample aliquots) were assayed for anti-polypeptide activity by adding 100 microliters of a serum diluted 1:20 in BBS per well to form a solid/liquid phase composition. Contact between the diluted sera and the antigen-coated solid phase was maintained for a predetermined time such as 1 hour, and at 20 degrees C., for an immunoreactant to form. The solid and liquid phases were separated, and the solid phase; i.e., antigen-coated, immunoreactant-containing wells, was then washed three times with BBS.

Residues, ends and D or L forms follow the SMILES beside them.

Protocol for anti-EBNA antibodies: Briefly, microtiter wells (Costar, #3590, Cambridge, MA) were typically coated with individual polypeptides as antigens by adding 100 microliters (ul) of BBS [10 millimoler (mM) sodium borate (pH 8.3), 150 mM NaCl] containing polypeptide at a concentration of 10 micrograms per milliliter (ug/ml). Contact between the wells and antigen-containing solution was maintained for a predetermined time, typically 15 minutes, and at 20 degrees C., to form an antigen-coated solid phase. The solid and liquid phases were separated and the wells were washed three times with BBS.
Non-specific binding sites were blocked by admixing 200 microliters of 1% bovine serum albumin (BSA) in each well to form another solid/liquid phase admixture, and maintaining that solid/liquid phase admixture for 30 minutes, at 20 degrees C. The phases were separated and excess, unbound BSA was removed by washing three times with BBS.
The antibodies in human sera that immunoreacted with an adsored polypeptide were detected using an indicating means comprising alkaline phosphatase-conjugated goat anti-human Ig antibody (Tago, Burlington, Calif.). The antibodies in rabbit sera that immunoreacted with an adsorbed polypeptide were detected using an indicating means comprising alkaline phosphatase-conjugated goat anti-rabbit Ig antibody (Kirkegard & Perry Laboratories, Inc., Gaithersburg, MD). In either instance, 100 microliters of the indicating antibody diluted 1:300 in BBS were added per well to form a further solid/liquid phase composition. This solid-liquid phase composition was maintained for a predetermined time, one hour, for the formation of a reaction product between the human antibodies bound to the solid phase and the indicating means, and at 20 degrees C. The phases were separated, and the solid phase was washed 3 times with BBS.
Alkaline phosphatase-conjugated antibody bound to polypeptide specific antibody was detected by spectrophotometrically measuring the enzymatic hydrolysis of p-nitrophenyl phosphate to p-nitrophenol. Briefly, 100 microliters of p-nitrophenyl phosphate [1 milligram per milliliter in 2 mM MgCl 2, (pH 9.8), 50 mM sodium carbonate] were added to each well. The enzymatic reaction was allowed to proceed 1 hour and then the optical density at 405 nm was determined in a [sequence] spectrophotometer available from Flow Laboratories, Inglewood, Calif.

As to `C[C@H](NC(=O)CNC(=O)CNC(=O)CNC(=O)[C@H](C)NC(=O)CNC(=O)[C@H](C)NC(=O)CNC(=O)CNC(=O)[C@H](C)NC(=O)CNC(=O)CNC(=O)[C@H](C)NC(=O)CNC(=O)CN)C(=O)NCC(=O)O` [Polypeptide F14, H--Gly--Gly--Ala--Gly--Gly--Ala--Gly--Gly--Ala--Gly--Ala--Gly--Gly--Gly--Ala--Gly--OH] (H-GGAGGAGGAGAGGGAG-OH), the “Conformation by circular dichroism spectrum” value (“Conformation” below) in data set [1] is given as “very similar spectra”. Further, in the data set with anti-EBNA antibodies, the “Number of anti-EBNA positive sera positive against (bound to) polypeptide” value (from here on “Number … (bound to) polypeptide”) is listed as 91, the “Titer of PSS patients versus normals” value is on record as “relatively higher average titer”, the “Reaction of VCA+ sera with polypeptide” value is “all of the VCA^+ individuals were positive” and the “Reaction of VCA- sera with polypeptide” value was “None of the VCA^- sera were found to react positively”.
Turning to `CSCC[C@H](NC(=O)[C@@H]1CCCN1C(=O)[C@H](CCCNC(=N)N)NC(=O)[C@H](CCCCN)NC(=O)[C@H](CCC(=O)O)NC(=O)CNC(=O)[C@H](CCCNC(=N)N)NC(=O)CNC(=O)[C@H](CCCNC(=N)N)NC(=O)CNC(=O)[C@H](CCCNC(=N)N)NC(=O)CNC(=O)[C@H](CCCNC(=N)N)NC(=O)[C@H](C)NC(=O)[C@@H](N)CCCNC(=N)N)C(=O)O` [Polypeptide P89, H--Arg--Ala--Arg--Gly--Arg--Gly--Arg--Gly--Arg--Gly--Glu--Lys--Arg--Pro--Met--OH] (H-RARGRGRGRGEKRPM-OH), the “OD405 × 10^3 obtained with Patient Antibodies to peptide” value (“OD405 × 10^3 obtained” for short) in the data set on anti-EBNA antibodies (MV post-mononucleosis) is given as 25 OD405 × 10^3; with anti-EBNA antibodies (MV pre-mononucleosis), 29 OD405 × 10^3; in the data set on anti-EBNA antibodies (SB post-mononucleosis) it was 23 OD405 × 10^3; in the data set on anti-EBNA antibodies (SB pre-mononucleosis) it was 9 OD405 × 10^3; with anti-EBNA antibodies (VCA+ Normal 1), 23 OD405 × 10^3; in the data set with anti-EBNA antibodies (VCA+ Normal 2), 16 OD405 × 10^3.
Take `CC[C@H](C)[C@H](N)C(=O)N[C@@H](CCSC)C(=O)N[C@@H](CO)C(=O)N[C@@H](CC(=O)O)C(=O)N[C@@H](CCC(=O)O)C(=O)NCC(=O)N1CCC[C@H]1C(=O)NCC(=O)N[C@H](C(=O)NCC(=O)N[C@@H](CC(N)=O)C(=O)NCC(=O)N[C@@H](CC(C)C)C(=O)NCC(=O)N[C@@H](CCC(=O)O)C(=O)O)[C@@H](C)O` [Polypeptide F12, H--Ile--Met--Ser--Asp--Glu--Gly--Pro--Gly--Thr--Gly--Asn--Gly--Leu--Gly--Glu--OH] (H-IMSDEGPGTGNGLGE-OH): the “Conformation” value in data set [1] is “partial assumption of such conformation”. Besides, in the data set on anti-EBNA antibodies, the “Reaction of VCA+ sera with polypeptide” value is reported as “all of the VCA^+ individuals were positive” and the “Reaction of VCA- sera with polypeptide” value was “None of the VCA^- sera were found to react positively”.
On to `C[C@H](NC(=O)CNC(=O)CNC(=O)[C@H](C)NC(=O)CNC(=O)[C@H](C)NC(=O)CNC(=O)CNC(=O)[C@H](C)NC(=O)CNC(=O)[C@H](C)NC(=O)CNC(=O)CNC(=O)[C@H](C)NC(=O)CNC(=O)[C@H](C)NC(=O)CNC(=O)CN)C(=O)NCC(=O)N[C@@H](C)C(=O)NCC(=O)O` [Polypeptide F16, H--Gly--Gly--Ala--Gly--Ala--Gly--Gly--Ala--Gly--Ala--Gly--Gly--Ala--Gly--Ala--Gly--Gly--Ala--Gly--Ala--Gly--OH] (H-GGAGAGGAGAGGAGAGGAGAG-OH), for which, in the data set with anti-EBNA antibodies, the “Number … (bound to) polypeptide” value amounted to 91, the “Titer of PSS patients versus normals” value is listed as “relatively higher average titer”, the “Reaction of VCA+ sera with polypeptide” value was “all of the VCA^+ individuals were positive” and the “Reaction of VCA- sera with polypeptide” value is listed as “None of the VCA^- sera were found to react positively”.
Turning to `C[C@H](NC(=O)CNC(=O)[C@@H]1CCCN1)C(=O)N1CCC[C@H]1C(=O)NCC(=O)NCC(=O)N[C@@H](CO)C(=O)NCC(=O)N[C@@H](CO)C(=O)NCC(=O)N1CCC[C@H]1C(=O)O` [Polypeptide F13, H--Pro--Gly--Ala--Pro--Gly--Gly--Ser--Gly--Ser--Gly--Pro--OH] (H-PGAPGGSGSGP-OH), the “Conformation” value in data set [1] is given as “random conformation”. In addition, in the data set on anti-EBNA antibodies, the “Reaction of VCA+ sera with polypeptide” value is recorded as “all of the VCA^+ individuals were positive” and the “Reaction of VCA- sera with polypeptide” value is “None of the VCA^- sera were found to react positively”.
In the case of `C[C@H](NC(=O)CNC(=O)CNC(=O)[C@H](C)NC(=O)CNC(=O)[C@H](C)NC(=O)CNC(=O)[C@H](C)NC(=O)CNC(=O)[C@@H](NC(=O)CNC(=O)CNC(=O)[C@H](Cc1c[nH]cn1)NC(=O)[C@@H](NC(=O)CNC(=O)[C@@H](N)CCCCN)[C@@H](C)O)[C@@H](C)O)C(=O)NCC(=O)N[C@@H](C)C(=O)NCC(=O)O` [Polypeptide P27, H--Lys--Gly--Thr--His--Gly--Gly--Thr--Gly--Ala--Gly--Ala--Gly--Ala--Gly--Gly--Ala--Gly--Ala--Gly--OH] (H-KGTHGGTGAGAGAGGAGAG-OH), in data set [1], the “Conformation” value is recorded as “very similar spectra”. The “Number … (bound to) polypeptide” value in the data set with anti-EBNA antibodies turned out to be 91. The “Titer of PSS patients versus normals” value in the data set on anti-EBNA antibodies is on record as “relatively higher average titer”. Moreover, the “Reaction of VCA+ sera with polypeptide” value in the data set on anti-EBNA antibodies is reported as “all of the VCA^+ individuals were positive”. In the data set on anti-EBNA antibodies, the “Reaction of VCA- sera with polypeptide” value is “None of the VCA^- sera were found to react positively”. Further, the “OD405 × 10^3 obtained” value with anti-EBNA antibodies (MV post-mononucleosis) came to 107 OD405 × 10^3; in the data set with anti-EBNA antibodies (MV pre-mononucleosis), 15 OD405 × 10^3; with anti-EBNA antibodies (SB post-mononucleosis) it was 33 OD405 × 10^3; with anti-EBNA antibodies (SB pre-mononucleosis) it was 11 OD405 × 10^3; with anti-EBNA antibodies (VCA+ Normal 1), 155 OD405 × 10^3; in the data set on anti-EBNA antibodies (VCA+ Normal 2), 516 OD405 × 10^3. Moreover, the “OD405 × 10^3 obtained” value with anti-EBNA antibodies (VCA- Normals (n = 27), average ± one standard deviation) was 67 ± 23 OD405 × 10^3. For the same compound, the “Inhibition of binding of anti-polypeptide P62 to polypeptide P62 in the solid phase” value in data set [2] came to 36%.
Regarding `C[C@H](NC(=O)CN)C(=O)NCC(=O)NCC(=O)N[C@@H](C)C(=O)NCC(=O)N[C@@H](C)C(=O)NCC(=O)NCC(=O)NCC(=O)N[C@@H](C)C(=O)NCC(=O)NCC(=O)N[C@@H](C)C(=O)NCC(=O)NCC(=O)O` [Polypeptide F15, H--Gly--Ala--Gly--Gly--Ala--Gly--Ala--Gly--Gly--Gly--Ala--Gly--Gly--Ala--Gly--Gly--OH] (H-GAGGAGAGGGAGGAGG-OH), in data set [1], the “Conformation” value is reported as “very similar spectra”. Further, in the data set with anti-EBNA antibodies, the “Number … (bound to) polypeptide” value was 91, the “Titer of PSS patients versus normals” value was “relatively higher average titer”, the “Reaction of VCA+ sera with polypeptide” value was “all of the VCA^+ individuals were positive” and the “Reaction of VCA- sera with polypeptide” value is on record as “None of the VCA^- sera were found to react positively”.
